Reference: patent US20180348208A1, “Systems And Methods For Determining The Risk Of Severe Allergic Reaction To Allergen, And The Immunological Protection Afforded By Vaccines” (FlowMetric Life Sciences, priority 2017, published 2018)

How the values were obtained:
[1] = system: leukocytes and CD3+ lymphocytes; test: Detection of leukocyte and lymphocyte activation markers involved in allergic response by flow cytometry; format: cell-based, Human
Protocol: Human whole blood was obtained from a normal control individual and from an individual with a severe allergy to Amoxicillin. The blood was diluted 1:5 in RPMI media, then stimulated with either 50 μM Amoxicillin for 20 minutes to 1 hour at 37° C. and 5% CO2. In parallel, blood samples were treated with a buffer as a stimulation control, or with 50 μg/mL of the potent polymorphonuclear leukocyte (PMN) chemotactic factor fMLP (N-Formylmethionyl-leucyl-phenylalanine).
Following the stimulation period, blood samples were stained with fluorescently-labeled antibodies to leukocyte activation markers CD294, CD203a or lymphocyte activation markers CD71 and CD69 with the use of CD3 to identify CD3+ lymphocytes. Each of the samples were then incubated, protected from light, for a minimum of 30 minutes. Following incubation with the labeled antibodies, the samples were washed with BSA Stain Buffer. In parallel, samples were separately incubated with isotype control antibodies.
Following washing, red blood cells were lysed with 1 mL of 1× Pharm Lyse™ by incubation with this reagent for 15 minutes. Samples were centrifuged, and washed again with BSA Stain Buffer.
Samples and controls were then run through a FACS CANTO flow cytometer. The flow cytometer was calibrated, and compensation was performed according to standard requirements and procedures. Cells were suspended at a density of 1,000,000 cells per mL in a tube, and run through the flow cytometer for analysis. One hundred thousand events were collected per analysis.
Live cells were gating based on their low staining with FVS450. Lymphocytes and leukocytes were identified by their forward (FSC) and side (SSC) scatter profiles, and gated accordingly. CD+ lymphocytes were then further analyzed according to activation markers CD69 and CD71.

T cells = test: T cell activation detection by flow cytometry in stimulated human whole blood; format: cell-based
Protocol: Human whole blood can be obtained and diluted 1:5 in RPMI media and stimulated with 0, 20, 40, 60, 80, and 100 μg/mL (of blood) of phytohemagglutinin (PHA) for about 20 hours at 37° C. and 5% CO2. In parallel, blood samples can be treated with a buffer (no PHA) as a stimulation control. Following the stimulation period, blood samples can be stained with fluorescently-labeled antibodies to T cell markers, including CD4, CD25, CD69, and CD71. Fluorescently-labeled (FITC, APC, PE, PerCP-Cy5, and APC-Cy7) antibodies can be mixed with 100 μIL of PHA-stimulated blood samples or with unstimulated blood control samples in parallel, and each of the samples were can then be incubated, protected from light, for a minimum of 30 minutes. Following incubation with the labeled antibodies, the samples can be washed with BSA Stain Buffer. In parallel, samples can be separately incubated with isotype control antibodies. Following washing, red blood cells can be lysed with 1 mL of 1× Pharm Lyse™ by incubation with this reagent for 15 minutes. Samples can be centrifuged, and washed again with BSA Stain Buffer. All samples can be fixed and permeabilized with eBiosciences Fix and Perm solutions according to the manufacturer's instructions. FoxP3 can be added to the fixed/permeabilized samples, and the samples can be incubated for a minimum of 30 minutes. Samples can be washed with BSA Stain Buffer, and 1 μL of Violet Live/Dead is added to the samples and incubated, protected from light, for a minimum of 15 minutes. Samples and controls can be run through a FACSAria III flow cytometer. The flow cytometer can be calibrated, and compensation can be performed according to standard requirements and procedures. Cells can be suspended at a density of 1,000,000 cells per mL in a tube, and run through the flow cytometer for analysis. One hundred thousand events can be collected per analysis. T cells can be identified by their forward (FSC) and side (SSC) scatter profiles, and gated accordingly. T cells can further be analyzed according to the T cell marker profiles (Fox3, CD4, CD25, cD69, and CD71).

[2] = fMLP-stimulated blood samples, 50 μg/mL
[3] = blood from allergic donor (highly sensitive to Amoxicillin), 50 μM, 20 minutes to 1 hour
[4] = blood from non-allergic donor, 50 μM, 20 minutes to 1 hour
[5] = human whole blood diluted 1:5 in RPMI, PHA stimulation about 20 hours at 37° C.
[6] = increasing amounts of PHA, 0 to 100 micrograms over 20 microgram increments

Compound: CSCC[C@H](NC=O)C(=O)N[C@@H](CC(C)C)C(=O)N[C@@H](Cc1ccccc1)C(=O)O [fMLP, N-Formylmethionyl-leucyl-phenylalanine]
- CD294 and CD203a expression on leukocytes [1, 2]: substantial increase
- expression of CD71 and CD69 on lymphocytes [1, 2]: significant increase

Compound: CC1(C)S[C@@H]2[C@H](NC(=O)[C@H](N)c3ccc(O)cc3)C(=O)N2[C@H]1C(=O)O [Amoxicillin]
- expression of CD69 and CD71 on CD3+ lymphocytes [1, 3]: increased expression
- expression of CD294 and CD203a on leukocytes [1, 3]: increased expression
- CD71 or CD69 on lymphocytes [1, 4]: did not show an increase
- CD294 and CD203a on leukocytes [1, 4]: did not show an increase

Compound: Phytohemagglutinin [PHA]
- stimulation of normal whole blood CD71, CD69, FoxP3 and CD25+ cells (T cells; 20-100 μg/mL PHA): stimulated
- CD4 expression on the T cells (T cells; [5]): substantial increase
- expression of CD25, CD69, CD71, and FoxP3 on the T cells (T cells; [5]): significant increase
- level of CD69 expression on CD4+ cells (T cells; increasing amounts of PHA, 0 to 100 micrograms): enhancement
- level of CD71 expression on CD4+ cells (T cells; [6]): enhancement
- level of FoxP3 expression on CD4+ cells (T cells; [6]): enhancement
